# ChEMBL document CHEMBL1128565, “Aspartyl alpha-((diphenylphosphinyl)oxy)methyl ketones as novel inhibitors of interleukin-1 beta converting enzyme. Utility of the diphenylphosphinic acid leaving group for the inhibition of cysteine proteases” (J Med Chem, 1995)
# Legend:
# [1] = molecular target: Cathepsin B (Homo sapiens) (UniProt P07858); test: Inhibition of Cathepsin B at pH 6.5 and 25 degrees Centigrade.
# Caspase-1 (Homo sapiens) = molecular target: T1, Caspase-1 (Homo sapiens) (UniProt P29466); test: Inhibition of interleukin-1-beta converting enzyme at pH 7.4, 37 degree C
# T1 sequence (whole entry): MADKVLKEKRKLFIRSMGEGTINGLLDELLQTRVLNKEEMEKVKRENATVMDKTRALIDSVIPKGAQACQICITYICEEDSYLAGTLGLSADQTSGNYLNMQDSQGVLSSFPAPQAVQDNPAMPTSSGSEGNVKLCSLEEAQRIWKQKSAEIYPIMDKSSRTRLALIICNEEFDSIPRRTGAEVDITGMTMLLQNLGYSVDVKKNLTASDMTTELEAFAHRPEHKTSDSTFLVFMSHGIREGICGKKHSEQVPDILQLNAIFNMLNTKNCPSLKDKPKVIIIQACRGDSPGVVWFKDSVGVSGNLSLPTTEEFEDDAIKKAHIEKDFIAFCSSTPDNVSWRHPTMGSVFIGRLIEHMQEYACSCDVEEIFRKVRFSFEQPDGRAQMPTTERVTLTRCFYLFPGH
# [2] = molecular target: T2, Calpain-1 catalytic subunit (Homo sapiens) (UniProt P07384); test: Inhibition of Human erythrocyte calpain 1 using a continuous assay at pH 7.5 and 8 degrees Centigrade
# T2 sequence (whole entry): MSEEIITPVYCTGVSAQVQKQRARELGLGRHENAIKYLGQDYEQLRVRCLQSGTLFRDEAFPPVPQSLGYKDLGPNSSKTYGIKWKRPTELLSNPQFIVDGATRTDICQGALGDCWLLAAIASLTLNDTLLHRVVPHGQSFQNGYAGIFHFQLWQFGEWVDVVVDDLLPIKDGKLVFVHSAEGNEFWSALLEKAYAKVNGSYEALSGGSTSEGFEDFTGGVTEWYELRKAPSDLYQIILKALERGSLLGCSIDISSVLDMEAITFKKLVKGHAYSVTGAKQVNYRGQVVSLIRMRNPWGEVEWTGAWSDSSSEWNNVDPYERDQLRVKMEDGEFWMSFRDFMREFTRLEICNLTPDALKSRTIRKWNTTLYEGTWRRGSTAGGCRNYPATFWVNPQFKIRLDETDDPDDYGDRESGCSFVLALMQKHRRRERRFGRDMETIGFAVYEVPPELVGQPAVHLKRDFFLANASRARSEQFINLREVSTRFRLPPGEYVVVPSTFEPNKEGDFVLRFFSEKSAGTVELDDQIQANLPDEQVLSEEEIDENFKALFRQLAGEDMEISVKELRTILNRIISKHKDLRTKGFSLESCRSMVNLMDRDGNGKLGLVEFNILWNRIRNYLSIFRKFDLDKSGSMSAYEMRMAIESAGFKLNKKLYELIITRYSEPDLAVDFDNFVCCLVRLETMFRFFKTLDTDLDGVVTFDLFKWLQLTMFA
# [3] = molecular target: Cathepsin B (Homo sapiens) (UniProt P07858); test: Inhibition of Cathepsin B at 8 degrees Centigrade.
# [4] = molecular target: Procathepsin L (Homo sapiens) (UniProt P07711); test: Inhibitory activity against Cathepsin L at 8 degrees Centigrade.
# [5] = molecular target: T2, Calpain-1 catalytic subunit (Homo sapiens); test: Inhibition of Human erythrocyte calpain 1 using a continuous assay at pH 7.5 and 8 degrees Centigrade.
# [6] = molecular target: Cathepsin B (Homo sapiens) (UniProt P07858); test: Inhibition of Cathepsin B at pH 6.5 and 250 (1/M 1/s) 8 degrees Centigrade.
# [7] = molecular target: Cathepsin B (Homo sapiens) (UniProt P07858); test: Inhibition of Cathepsin B at pH 6.5 and 360000 (1/M 1/s) at 8 degrees Centigrade.
# Sequence of Procathepsin L (Homo sapiens) (P07711 114-333 limits assumed): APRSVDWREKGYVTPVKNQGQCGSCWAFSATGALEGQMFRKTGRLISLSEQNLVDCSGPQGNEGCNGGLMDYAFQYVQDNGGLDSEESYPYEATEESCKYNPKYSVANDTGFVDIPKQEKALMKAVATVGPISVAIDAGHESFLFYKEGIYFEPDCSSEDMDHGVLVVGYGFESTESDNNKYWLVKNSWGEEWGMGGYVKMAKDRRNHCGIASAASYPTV
Structure (SMILES),K obs / 1 [1] [M⁻¹ s⁻¹],K obs / 1 (Caspase-1 (Homo sapiens)) [M⁻¹ s⁻¹],other results
CC(C)C[C@@H](NC(=O)[C@@H](C)NC(=O)OCc1ccccc1)C(=O)N[C@H](Cc1ccccc1)C(=O)COC(=O)c1c(F)cccc1F,–,–,K obs / 1 [2]: 31000 M⁻¹ s⁻¹; K obs / 1 [3]: 100 M⁻¹ s⁻¹; K obs / 1 [4]: 300 M⁻¹ s⁻¹
CC(C)C[C@@H](NC(=O)[C@@H](C)NC(=O)OCc1ccccc1)C(=O)N[C@H](Cc1ccccc1)C(=O)COC(=O)c1c(F)ccc(OCCN2CCOCC2)c1F,–,–,K obs / 1 [2]: 32000 M⁻¹ s⁻¹; K obs / 1 [3]: 400 M⁻¹ s⁻¹; K obs / 1 [4]: 28000 M⁻¹ s⁻¹
CC(C)[C@@H](NC(=O)OCc1ccccc1)C(=O)N[C@@H](CC(=O)O)C(=O)COP(C)(C)=O,–,12300,–
CC(C)[C@@H](NC(=O)OCc1ccccc1)C(=O)N[C@@H](CC(=O)O)C(=O)COC(=O)c1c(Cl)cccc1Cl,–,30000,–
CC(C)[C@@H](NC(=O)OCc1ccccc1)C(=O)N[C@@H](CC(=O)O)C(=O)COc1cc(C(F)(F)F)nn1-c1ccccc1,< 500,20000,–
C[C@H](NC(=O)[C@@H](Cc1ccccc1)NC(=O)OCc1ccccc1)C(=O)COc1cc(C(F)(F)F)nn1-c1ccccc1,2300,< 500,K obs / 1 [5]: < 500 M⁻¹ s⁻¹
CC(C)C[C@@H](NC(=O)OCc1ccccc1)C(=O)N[C@@H](Cc1ccccc1)C(=O)COc1cc(C(F)(F)F)nn1-c1ccccc1,< 500,–,K obs / 1 [5]: < 500 M⁻¹ s⁻¹
CC(C)C[C@@H](NC(=O)OCc1ccccc1)C(=O)N[C@@H](Cc1ccccc1)C(=O)COC(=O)c1c(Cl)cccc1Cl,–,–,K obs / 1 [5]: 11400 M⁻¹ s⁻¹; K obs / 1 [6]: < 1000 M⁻¹ s⁻¹
C[C@H](NC(=O)[C@@H](Cc1ccccc1)NC(=O)OCc1ccccc1)C(=O)COC(=O)c1c(Cl)cccc1Cl,–,< 500,K obs / 1 [2]: 300 M⁻¹ s⁻¹; K obs / 1 [7]: 1.5e+06 M⁻¹ s⁻¹

# Second part, led by results:
K obs / 1 [1] [M⁻¹ s⁻¹],K obs / 1 (Caspase-1 (Homo sapiens)) [M⁻¹ s⁻¹],Structure (SMILES),other results
400000,< 500,C[C@H](NC(=O)[C@@H](Cc1ccccc1)NC(=O)OCc1ccccc1)C(=O)COP(=O)(c1ccccc1)c1ccccc1,–
1700,–,CC(C)[C@H](NC(=O)OCc1ccccc1)C(=O)N[C@@H](C)C(=O)N[C@@H](CC(=O)O)C(=O)COP(=O)(c1ccccc1)c1ccccc1,–
–,< 500,CC(C)[C@@H](NC(=O)OCc1ccccc1)C(=O)N[C@@H](CC(=O)O)C(=O)CO[PH](=O)c1ccccc1 (some centres not stated),–
< 500,50200,CC(C)[C@@H](NC(=O)OCc1ccccc1)C(=O)N[C@@H](CC(=O)O)C(=O)COP(=O)(c1ccccc1)c1ccccc1,–
–,230000,CC(C)[C@H](NC(=O)OCc1ccccc1)C(=O)N[C@@H](C)C(=O)N[C@@H](CC(=O)O)C(=O)COP(=O)(c1ccc(Cl)cc1)c1ccc(Cl)cc1,–
–,77300,CC(C)[C@@H](NC(=O)OCc1ccccc1)C(=O)N[C@@H](CC(=O)O)C(=O)COP(=O)(c1ccc(Cl)cc1)c1ccc(Cl)cc1,–
–,11800,O=C(O)C[C@H](NC(=O)OCc1ccccc1)C(=O)COP(=O)(c1ccccc1)c1ccccc1,–
< 500,< 500,CC(C)C[C@@H](NC(=O)OCc1ccccc1)C(=O)N[C@@H](Cc1ccccc1)C(=O)COP(=O)(c1ccccc1)c1ccccc1,K obs / 1 [2]: 10000 M⁻¹ s⁻¹
